Measured values taken from ChEMBL document CHEMBL3774337, “In vivo phase II-enzymes inducers, as potential chemopreventive agents, based on the chalcone and furoxan skeletons” (Bioorg Med Chem, 2016).
The source made the active and inactive calls. No cut-off for these calls is given here.

Experiments:
MCF7 = test: Cytotoxicity against human MCF7 cells at 100 uM after 24 hrs by SRB assay; assay type: functional, cell-based
Mus musculus [1] = species: Mus musculus; test: Ratio of quinone reductase specific activity in mouse Hepa1c1c7 cells to quinone reductase specific activity in mouse mutant BpRc1 cells; assay type: cell-based
Mus musculus [2] = species: Mus musculus; test: Induction of quinone reductase specific activity in mouse mutant BpRc1 cells expressing defective translocator receptor Arnt using 2,6-DCIP as substrate at 10 uM measured for 1 min relative to control; assay type: cell-based
Mus musculus [3] = species: Mus musculus; test: Induction of quinone reductase specific activity in mouse Hepa1c1c7 cells using 2,6-DCIP as substrate at 10 uM measured for 1 min relative to control; assay type: cell-based
Salmonella typhimurium [4] = test: Mutagenicity in Salmonella typhimurium TA98 assessed as revertant colonies at 2 to 167 ug/plate by Ames test in presence of mouse liver S9 fraction; assay type: toxicity, organism-based; conditions: salmonella enterica subsp. enterica serovar typhimurium
Salmonella typhimurium [5] = test: Mutagenicity in Salmonella typhimurium TA98 assessed as revertant colonies at 2 to 167 ug/plate by Ames test in absence of mouse liver S9 fraction; assay type: toxicity, organism-based; conditions: salmonella enterica subsp. enterica serovar typhimurium
HT-29 = test: Cytotoxicity against human HT-29 cells at 100 uM after 24 hrs by SRB assay; assay type: functional, cell-based
Salmonella typhimurium [6] = test: Mutagenicity in Salmonella typhimurium TA98 assessed as revertant colonies at 0.02 to 2 ug/plate by Ames test in absence of mouse liver S9 fraction; assay type: toxicity, organism-based; conditions: salmonella enterica subsp. enterica serovar typhimurium
Salmonella typhimurium [7] = test: Mutagenicity in Salmonella typhimurium TA98 assessed as revertant colonies at 0.02 to 2 ug/plate by Ames test in presence of mouse liver S9 fraction; assay type: toxicity, organism-based; conditions: salmonella enterica subsp. enterica serovar typhimurium
Rattus norvegicus [8] = test: Toxicity in Wistar rat assessed as change in behaviors at 15 mg/kg/day, po for two weeks; assay type: organism-based; conditions: in vivo
Rattus norvegicus [9] = test: Induction of quinone reductase activity in cytosolic fraction of Wistar rat liver at 15 mg/kg/day, po for two weeks using 2,6-DCIP as substrate measured for 1 min relative to control; assay type: functional
Rattus norvegicus [10] = test: Toxicity in Wistar rat assessed as change in body weight at 15 mg/kg/day, po for two weeks; assay type: organism-based; conditions: in vivo
[11] = Toxicity in Wistar rat assessed as survival at 15 mg/kg/day, po for two weeks; assay type: organism-based; conditions: in vivo
Mus musculus [12] = species: Mus musculus; test: Induction of quinone reductase activity in mouse mutant BpRc1 cells using 2,6-DCIP as substrate measured for 1 min; assay type: cell-based
Mus musculus [13] = species: Mus musculus; test: Ratio of induction of quinone reductase specific activity in mouse mutant BpRc1 cells to mouse Hepa1c1c7 cells; assay type: cell-based
Mus musculus [14] = species: Mus musculus; test: Induction of quinone reductase specific activity in mouse Hepa1c1c7 cells assessed as concentration required to double enzyme specific activity using 2,6-DCIP as substrate measured for 1 min; assay type: cell-based
[15] = Chemoprotective index, ratio of IC50 for mouse Hepa1c1c7 cells to CD for quinone reductase activity in mouse Hepa1c1c7 cells
[16] = Cytotoxicity against mouse Hepa1c1c7 cells after 48 hrs by SRB assay; assay type: cell-based; conditions: Hepa-1c1c7, 48 h
[17] = Cytotoxicity against mouse mutant BpRc1 cells after 48 hrs by SRB assay; assay type: cell-based; conditions: BPrc1, 48 h
[18] = Chemoprotective index, ratio of IC50 for mouse mutant BpRc1 cells to CD for quinone reductase activity in mouse mutant BpRc1 cells
Rattus norvegicus [19] = test: Induction of CYP450 activity in microsomal fraction of Wistar rat liver at 15 mg/kg/day, po for two weeks using 7-ethoxyresorufine as substrate measured for 5 mins relative to control; assay type: ADME, organism-based; conditions: in vivo
Rattus norvegicus [20] = test: Induction of quinone reductase activity in cytosolic fraction of Wistar rat colon at 15 mg/kg/day, po for two weeks using 2,6-DCIP as substrate at 10 uM measured for 1 min relative to control; assay type: functional
[21] = target: T1, Nuclear factor erythroid 2-related factor 2 (Mus musculus) (UniProt Q60795); test: Induction of Nrf2 nuclear translocation in mouse Hepa1c1c7 cells assessed as protein accumulation in nucleus at 20 uM by DAPI staining based immunofluorescence assay; assay type: cell-based
T1 sequence (whole entry): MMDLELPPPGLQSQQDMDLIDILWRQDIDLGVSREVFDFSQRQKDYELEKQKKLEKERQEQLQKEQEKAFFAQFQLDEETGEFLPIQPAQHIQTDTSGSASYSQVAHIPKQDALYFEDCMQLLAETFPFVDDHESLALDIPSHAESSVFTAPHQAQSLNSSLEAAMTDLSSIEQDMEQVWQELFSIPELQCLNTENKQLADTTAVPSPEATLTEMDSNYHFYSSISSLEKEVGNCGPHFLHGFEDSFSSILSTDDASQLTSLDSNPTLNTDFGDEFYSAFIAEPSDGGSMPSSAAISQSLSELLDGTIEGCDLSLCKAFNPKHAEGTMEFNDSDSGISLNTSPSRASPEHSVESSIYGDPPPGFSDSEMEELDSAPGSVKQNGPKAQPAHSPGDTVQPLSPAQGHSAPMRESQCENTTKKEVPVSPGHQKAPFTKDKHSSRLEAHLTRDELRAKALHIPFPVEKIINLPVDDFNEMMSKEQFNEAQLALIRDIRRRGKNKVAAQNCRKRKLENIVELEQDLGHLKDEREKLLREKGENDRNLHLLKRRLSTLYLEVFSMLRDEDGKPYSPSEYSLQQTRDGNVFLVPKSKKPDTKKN

Rattus norvegicus [22] = test: Induction of glutathione S-transferase activity in cytosolic fraction of Wistar rat colon at 15 mg/kg/day, po for two weeks using CDNB as substrate measured for 1 min relative to control; assay type: functional
Rattus norvegicus [23] = test: Induction of CYP450 activity in microsomal fraction of Wistar rat colon at 15 mg/kg/day, po for two weeks using 7-ethoxyresorufine as substrate measured for 5 mins; assay type: ADME, organism-based; conditions: in vivo
Salmonella typhimurium [24] = test: Mutagenicity in Salmonella typhimurium TA98 assessed as revertant colonies at 0.5 to 40 ug/plate by Ames test in absence of mouse liver S9 fraction; assay type: toxicity, organism-based; conditions: salmonella enterica subsp. enterica serovar typhimurium
Rattus norvegicus [25] = test: Induction of glutathione S-transferase activity in cytosolic fraction of Wistar rat liver at 15 mg/kg/day, po for two weeks using CDNB as substrate measured for 1 min relative to control; assay type: functional
Salmonella typhimurium [26] = test: Mutagenicity in Salmonella typhimurium TA98 assessed as revertant colonies at 0.5 to 40 ug/plate by Ames test in presence of mouse liver S9 fraction; assay type: toxicity, organism-based; conditions: salmonella enterica subsp. enterica serovar typhimurium
Salmonella typhimurium [27] = test: Mutagenicity in Salmonella typhimurium TA98 assessed as revertant colonies at 5 to 400 ug/plate by Ames test in presence of mouse liver S9 fraction; assay type: toxicity, organism-based; conditions: salmonella enterica subsp. enterica serovar typhimurium
Salmonella typhimurium [28] = test: Mutagenicity in Salmonella typhimurium TA98 assessed as revertant colonies at 5 to 400 ug/plate by Ames test in absence of mouse liver S9 fraction; assay type: toxicity, organism-based; conditions: salmonella enterica subsp. enterica serovar typhimurium
Salmonella typhimurium [29] = test: Mutagenicity in Salmonella typhimurium TA98 assessed as revertant colonies at 0.5 to 30 ug/plate by Ames test in presence of mouse liver S9 fraction; assay type: toxicity, organism-based; conditions: salmonella enterica subsp. enterica serovar typhimurium
Salmonella typhimurium [30] = test: Mutagenicity in Salmonella typhimurium TA98 assessed as revertant colonies at 0.5 to 30 ug/plate by Ames test in absence of mouse liver S9 fraction; assay type: toxicity, organism-based; conditions: salmonella enterica subsp. enterica serovar typhimurium
Salmonella typhimurium [31] = test: Mutagenicity in Salmonella typhimurium TA98 assessed as revertant colonies at 6 to 500 ug/plate by Ames test in absence of mouse liver S9 fraction; assay type: toxicity, organism-based; conditions: salmonella enterica subsp. enterica serovar typhimurium
Salmonella typhimurium [32] = test: Mutagenicity in Salmonella typhimurium TA98 assessed as revertant colonies at 6 to 500 ug/plate by Ames test in presence of mouse liver S9 fraction; assay type: toxicity, organism-based; conditions: salmonella enterica subsp. enterica serovar typhimurium

SMILES | Activity (MCF7) | Ratio (Mus musculus [1]) | fold change (FC) (Mus musculus [2]) | fold change (FC) (Mus musculus [3]) | Activity (HT-29) | Activity (Rattus norvegicus [8]) | Activity (Rattus norvegicus [9]) | Activity (Rattus norvegicus [10]) | survival at 2 weeks [11] [%] | also measured
O=C(/C=C/c1ccc2c(c1)no[n+]2[O-])c1ccccc1 | Active | 0.59 | 1.7 | 1.01 | Active | – | – | – | – | Activity (Salmonella typhimurium [4]): Non-toxic; Activity (Salmonella typhimurium [5]): Toxic
Cc1c(/C=C/C(=O)c2ccccc2)no[n+]1[O-] | Active | 1.34 | 1.01 | 1.35 | Active | – | – | – | – | Activity (Salmonella typhimurium [6]): Non-toxic; Activity (Salmonella typhimurium [7]): Non-toxic
O=C(/C=C/c1ccc(Br)cc1)c1ccccc1O | – | – | – | – | – | Non-toxic | 128% | Non-toxic | 100 | –
COc1ccc(/C=C/C(=O)c2ccccc2)cc1 [4-METHOXY CHALCONE] | – | – | – | – | – | Non-toxic | Active | Non-toxic | 100 | –
O=c1cc(-c2ccc(Br)cc2)oc2ccccc12 | – | 2.99 | 1.49 | 4.45 | – | – | – | – | – | CD (Mus musculus [12]): 80 µM; Ratio (Mus musculus [13]): 100; CD (Mus musculus [14]): 0.79 µM; Ratio [15]: 107; IC50 [16]: 85 µM; IC50 [17]: 150 µM; Ratio [18]: 1.9
O=C(/C=C/c1c(-c2ccccc2)no[n+]1[O-])c1ccccc1O | Active | 1.65 | 1.82 | 3.01 | Active | Non-toxic | 80% | Non-toxic | 100 | Activity (Rattus norvegicus [19]): 40%; CD (Mus musculus [12]): 12 µM; Ratio (Mus musculus [13]): 1.5; Activity (Rattus norvegicus [20]): Active; CD (Mus musculus [14]): 8 µM; Ratio [15]: 5; Activity [21]: Active; Activity (Rattus norvegicus [22]): Active; Activity (Rattus norvegicus [23]): Active; Activity (Salmonella typhimurium [24]): Non-toxic; IC50 [16]: 40 µM; Activity (Rattus norvegicus [25]): 110%; IC50 [17]: 38 µM; Activity (Salmonella typhimurium [26]): Non-toxic; Ratio [18]: 3.2
O=C(/C=C/c1c(-c2ccccc2)no[n+]1[O-])c1ccccc1 | Active | 1.2 | 1.58 | 1.9 | Active | Non-toxic | 110% | Non-toxic | 100 | Activity (Rattus norvegicus [19]): 60%; Activity (Salmonella typhimurium [27]): Non-toxic; CD (Mus musculus [12]): 13 µM; Ratio (Mus musculus [13]): 1.1; Activity (Rattus norvegicus [20]): 12%; Activity (Salmonella typhimurium [28]): Non-toxic; CD (Mus musculus [14]): 12 µM; Ratio [15]: 3; Activity [21]: Active; Activity (Rattus norvegicus [22]): 13%; Activity (Rattus norvegicus [23]): Not Active; IC50 [16]: 36 µM; Activity (Rattus norvegicus [25]): 180%; IC50 [17]: 38 µM; Ratio [18]: 2.9
O=C(/C=C/c1c(-c2ccccc2)no[n+]1[O-])c1ccc2ccccc2c1 | – | 2.35 | 1.06 | 2.49 | – | – | – | – | – | Activity (Salmonella typhimurium [29]): Non-toxic; Activity (Salmonella typhimurium [30]): Non-toxic
Cc1c(/C=C/C(=O)c2ccccc2O)no[n+]1[O-] | Active | 1.26 | 1.18 | 1.49 | Active | – | – | – | – | Activity (Salmonella typhimurium [31]): Non-toxic; Activity (Salmonella typhimurium [32]): Non-toxic
O=C(/C=C/c1ccccc1)c1ccccc1O [2'-HYDROXYCHALCONE] | – | – | – | – | – | Non-toxic | Active | Non-toxic | 100 | Activity (Rattus norvegicus [25]): Active
O=C(/C=C/c1ccc2c(c1)no[n+]2[O-])c1ccccc1O | – | 1.18 | 1.18 | 1.39 | – | – | – | – | – | Activity (Salmonella typhimurium [31]): Non-toxic; Activity (Salmonella typhimurium [32]): Non-toxic
CC(C)(C)c1cc(O)ccc1O [E319] | – | – | – | – | – | – | – | – | – | CD (Mus musculus [12]): 6 µM; Ratio (Mus musculus [13]): 6; CD (Mus musculus [14]): 1 µM; Ratio [15]: 147; Activity [21]: Active; IC50 [16]: 147 µM; IC50 [17]: 60 µM; Ratio [18]: 10
Cc1c(/C=C/C(=O)c2ccc3ccccc3c2)no[n+]1[O-] | Active | 1.5 | 0.99 | 1.49 | Active | – | – | – | – | Activity (Salmonella typhimurium [31]): Non-toxic; Activity (Salmonella typhimurium [32]): Non-toxic
O=C(/C=C/c1ccc2c(c1)no[n+]2[O-])c1ccc2ccccc2c1 | Active | 1.75 | 1.01 | 1.77 | Active | – | – | – | – | –
